# Several values for one entry are separate records, joined by “and”; a condition that tells them apart may be missing. Equal values may be shown once. Entries after “also recorded” stand apart in the source; their conditions may differ. Read-outs that look alike come from different tables or passages of the source.
# What was measured:
# AhR = target: T1, AhR (Homo sapiens, UniProt P35869); assay: CYP1A1-bla LS-180 AhR agonist assay; format: cell-based
# T1 construct: LS-180 cells stably transfected with a CYP1A1 promoter-linked beta-lactamase gene reporter construct; endogenous in cells; host or cells: CYP1A1-bla LS-180 cells
# T1 sequence (P35869 11-848): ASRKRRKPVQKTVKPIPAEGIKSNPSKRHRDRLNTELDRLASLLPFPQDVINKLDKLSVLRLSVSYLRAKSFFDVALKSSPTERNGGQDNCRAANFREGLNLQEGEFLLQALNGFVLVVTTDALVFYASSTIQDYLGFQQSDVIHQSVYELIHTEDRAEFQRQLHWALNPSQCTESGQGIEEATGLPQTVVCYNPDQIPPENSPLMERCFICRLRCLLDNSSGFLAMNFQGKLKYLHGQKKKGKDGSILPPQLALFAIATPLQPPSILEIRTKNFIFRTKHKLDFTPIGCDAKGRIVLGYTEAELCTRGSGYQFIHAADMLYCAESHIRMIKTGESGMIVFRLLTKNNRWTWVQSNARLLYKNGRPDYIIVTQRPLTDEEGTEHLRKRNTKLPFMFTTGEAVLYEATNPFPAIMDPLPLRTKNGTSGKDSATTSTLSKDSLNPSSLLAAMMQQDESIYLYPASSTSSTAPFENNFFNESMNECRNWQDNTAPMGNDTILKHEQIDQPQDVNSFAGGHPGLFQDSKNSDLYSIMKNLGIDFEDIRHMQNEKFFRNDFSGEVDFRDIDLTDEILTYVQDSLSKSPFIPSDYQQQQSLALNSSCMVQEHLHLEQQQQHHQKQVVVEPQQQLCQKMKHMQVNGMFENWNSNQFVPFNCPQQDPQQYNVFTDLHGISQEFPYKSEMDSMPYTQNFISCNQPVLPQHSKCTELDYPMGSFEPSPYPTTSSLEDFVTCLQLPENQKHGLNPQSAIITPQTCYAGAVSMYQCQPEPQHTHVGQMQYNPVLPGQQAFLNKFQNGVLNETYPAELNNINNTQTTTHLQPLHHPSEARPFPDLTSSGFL
# Protocol: LS-180 cells stably transfected with a CYP1A1 promoter-linked beta-lactamase gene reporter construct (termed CYP1A1-bla LS-180 cells) were used to characterize the ability of compounds to activate AhR. In brief, AhR activity was measured using the LiveBLAzer assay kit which utilizes a beta lactamase (bla) reporter gene downstream of CYP1A1 promoter, which metabolizes its substrate to give a fluorescent readout. For the agonist assay, CYP1A1-bla LS-180 cells were treated with increasing concentrations of compound over a 100,000-fold concentration range.
# CYP1A1-bla LS-180 cells in exponential growth phase were washed twice with DPBS then seeded into 96-well microplates (50,000 cells/well) and allowed to adhere. […] The LiveBLAzer FRET B/G β-lactamase substrate was added in the final hour of incubation and resulting blue/green fluorescence was measured using a 96-well microplate reader.
# AhR activity was measured as a function of beta-lactamase expression using a fluorescence resonance energy transfer-based readout. TCDD and FICZ were used as controls to validate the system.
# IL-17A = assay: CD4+ T cell IL17 assay; format: cell-based, human; conditions: for IC50: T-cell
# Protocol: Therefore, compounds are evaluated for their ability to reduce IL-17 production from CD4+ T cells stimulated under Th17-skewing conditions. Cryopreserved human CD4^+ T cells (AllCells, LLC, Alameda, CA and Stemcell Technologies, Inc. Vancouver, Canada) were differentiated to the Th17 subtype by culturing for 5 days in CD3-coated tissue culture plates (2 μg/mL) in Iscove's modified Dulbecco's medium (IMDM) containing 10% HI-FBS, 55 μM 2-mercaptoethanol and soluble anti-CD28 (3 μg/mL) in the presence of a Th17 skewing cocktail, [IL-1β (10 ng/mL), IL-6 (30 ng/mL), TGFβ (0.5 ng/mL), IL-21 (10 ng/mL), IL-23 (10 ng/mL), anti-IFNγ (10 μg/mL) and anti-IL-4 (10 μg/mL)] in the presence or absence of serially diluted compounds. Secretion of IL-17 from polarized CD4+ T-cells was measured in the culture media using an MSD (Meso Scale Discovery) detection system following 5 day exposure toTh17 polarization reagents with and without compounds.
# [1] = test system: primary human cell culture platforms; assay: BioMAP Diversity Plus profiling; format: cell-based
# [2] = plasma protein binding by Rapid Equilibrium Dialysis, rat; format: in vitro ADME; conditions: rat, plasma
# Excerpt: (§1) The blood-to-plasma ratios were similar across species (1.22-1.36, Table 9).
# Rat Plasma Proteins = assay: as above; format: in vitro ADME
# Excerpt: as §1
# [3] = plasma protein binding by Rapid Equilibrium Dialysis, human; format: in vitro ADME; conditions: human, plasma
# Excerpt: as §1
# Human Plasma Proteins = assay: as above; format: in vitro ADME
# Excerpt: as §1
# [4] = blood-to-plasma ratio and blood cell association, rat; format: in vitro ADME
# [5] = blood-to-plasma ratio and blood cell association, minipig; format: in vitro ADME
# [6] = metabolic stability in liver microsomes, human; format: in vitro ADME
# [7] = metabolic stability in hepatocytes, rat; format: in vitro ADME
# [8] = metabolic stability in hepatocytes, rabbit; format: in vitro ADME
# [9] = metabolic stability in hepatocytes, human; format: in vitro ADME
# [10] = read-out: % Unbound Mean (% CV)
# [11] = read-out: Mean % Bound (converted)
# [12] = read-out: Blood-to-plasma Ratio Mean (% CV)
# [13] = read-out: Blood-to-plasma Ratio Replicate
compound,measurement,setting,value
CC(C)c1c(O)cc(-c2cc3ccccc3cn2)cc1O,EC50,AhR,0.0158 µM
same,IC50,"IL-17A; MSD-based readout of secreted IL-17A from Th17-polarized primary human CD4+ peripheral blood T cells, read-out: IL-17A pIC50 (converted)",0.00398 µM
same,IC50,"IL-17A; primary human peripheral blood CD4+ T-cells, read-out: IL-17A inhibition IC50",0.14 µM
same,IL-17A production,"IL-17A; Th17-skewing conditions, applied throughout culture",suppression of IL-17A; also recorded: reduces IL-17A production in a dose-dependent manner
same,effect on B cell proliferation,"[1]; 1 μM, 330 nM, 110 nM and 37 nM",anti-proliferative to B cells
same,increased biomarkers,"[1]; 1 μM, 330 nM, 110 nM and 37 nM","increased IL8, IL1α, sPGE2, ICAM-1, and E-selectin"
same,"reduced biomarkers (M-CSF, sIL-17A, sIL-2, sIL-6, sIL-10, Eot3, sTNFα, MCP-1, VCAM-1, MIP-1)","[1]; 1 μM, 330 nM, 110 nM and 37 nM",reductions in various cytokines/chemokines
same,sIL-17 in BioMAP,[1]; profiles overlaid,observed reduction in sIL-17
same,"fraction unbound at 4 h, 2 μM",[2]; [10],0.0306
same,"fraction unbound at 4 h, 2 μM",[2]; [11],0.031
same,"recovery at 4 h, 2 μM",Rat Plasma Proteins,104%
same,% Unbound Replicate,Rat Plasma Proteins; 2 μM,1.37% and 1.44% and 6.36%
same,Mean % Stability at 4 hrs,Rat Plasma Proteins; 2 μM,94.4%
same,fraction unbound at 2 μM,[3]; [10],0.0108
same,fraction unbound at 2 μM,[3]; read-out: % Unbound Replicate,0.0106
same,fraction unbound at 2 μM,[3]; [11],0.011
same,recovery at 2 μM,Human Plasma Proteins,102%
same,% Unbound Replicate,Human Plasma Proteins; 2 μM,1.05% and 1.13%
same,Mean % Stability at 4 hrs,Human Plasma Proteins; 2 μM,101%
same,% Blood Cell Association Mean (% CV),[4]; 1 μM,60.2 (4.37) %
same,% Blood Cell Association Replicate,[4]; 1 μM,58.9% and 58.3% and 63.1%
same,Blood-to-plasma Ratio Replicate,[4]; 1 μM,1.29 and 1.46
same,Mean % Blood Stability,[4]; 1 μM,104%
same,blood plasma ratio at 1 μM,[4]; [12],1.36
same,blood plasma ratio at 1 μM,[4]; [13],1.31
same,% Blood Cell Association Mean (% CV),[5]; 1 μM,55.6 (2.02) %
same,% Blood Cell Association Replicate,[5]; 1 μM,55.3% and 56.8% and 54.5%
same,Blood-to-plasma Ratio Replicate,[5]; 1 μM,1.25 and 1.19
same,Mean % Blood Stability,[5]; 1 μM,105%
same,blood plasma ratio at 1 μM,[5]; [12],1.22
same,blood plasma ratio at 1 μM,[5]; [13],1.21
same,"CLint, mic","[6]; human liver microsomes, 0.5 μM",1.35 mL/min/g liver
same,CLint scaled at 0.5 μM,"[6]; human liver microsomes, 0.5 μM, read-out: Scaled CLint, mic",33.1 mL/min/kg
same,half-life at 0.5 μM,"[6]; human, microsomes",40.9 min
same,in vitro-to-in vivo extrapolation (IVIVE) ratio,[7]; rat,0.45
same,"CLint, hep","[7]; rat hepatocytes, 0.5 μM",44.4 mL/min/g liver
same,half-life at 0.5 μM,"[7]; rat hepatocytes, 0.5 μM",3.37 min
same,CLint scaled at 0.5 μM,"[7]; rat hepatocytes, 0.5 μM, read-out: Scaled CLint, hep",1600 mL/min/kg
same,half-life at 0.5 μM,[8],21.3 min
same,"CLint, hep",[8]; 0.5 μM,7.80 mL/min/g liver
same,CLint scaled at 0.5 μM,"[8]; read-out: Scaled CLint, hep",240 mL/min/kg
same,half-life at 0.5 μM,[9],10.4 min
same,"CLint, hep",[9]; 0.5 μM,15.7 mL/min/g liver
same,CLint scaled at 0.5 μM,"[9]; read-out: Scaled CLint, hep",384 mL/min/kg

# — patent publication US20220017468A1, “ISOQUINOLINE COMPOUNDS AND THEIR USE IN TREATING AhR IMBALANCE” (Dermavant Sciences GmbH, priority 2020, published 2022)
